From patent publication US11884681B2, “3H,4H,5H,6H,7H-pyrimido[4,5-b][1,4]oxazine-4,6-dione derivatives as TRPA1 inhibitors” (Boehringer Ingelheim International GmbH, priority 2021, dated 2024) come the findings set out here.

Molecules are shown by their SMILES.

Data set [1] deals with T1, human TRPA1 ion channel (Homo sapiens, UniProt O75762).
T1 construct: host or cells: HEK293
The data set is described as follows: Assay A: TRPA1 assay (FLIPR calcium, AITC agonism). The following applies: compounds of the invention; HEK293 over-expressing human TRPA1, AITC final 10 μM, FLIPRtetra; read-out: hTRPA1 IC50. It counts as cell-based. Here is the method: A human HEK293 cell line over-expressing the human TRPA1 ion channel (Perkin Elmer, Product No. AX-004-PCL) is used as a test system for compound efficacy and potency. Compound activity is determined by measuring the effect of compounds on intracellular calcium concentration induced by AITC (Allylisothiocyanat) agonism in a FLIPRtetra system (Molecular Devices).
The cells are obtained as frozen cells in cryo-vials and stored until use at −150° C. Cells are grown in culture medium (MEM/EBSS medium with 10% FCS and 0.4 mg/ML Geneticin). […] For sub-culturing cells are detached from flasks by Versene. At the day before the assay, cells are detached, washed twice with medium (MEM/EBSS medium with 10% FCS) and 20000 cells in 20 μl/well are seeded to Poly D-Lysin biocoated 384-well plates (black, clear bottom, Cat. 356697) from Corning. Plates are incubated for 24 hours at 37° C./5% CO2 before use in the assay.
The test compounds are dissolved in 100% DMSO at a concentration of 10 mM and in a first step diluted in DMSO to a concentration of 5 mM, followed by serial dilution steps in 100% DMSO. Dilution factor and number of dilution steps may vary according to needs. Typically 8 different concentrations by 1:5 dilutions are prepared, further intermediate dilutions (1:20) of the substances are carried out with HBSS/HEPES buffer (1×HEPES, Cat. 14065 from Gibco, 20 mM HEPES, Cat. 83264 from SIGMA, 0.1% BSA Cat. 11926 from Invitrogen, pH 7.4
At the assay day cells are washed 3× with assay puffer, 20 μL buffer remaining in the wells after washing. 10 μL Ca6 kit (Cat. R8191 MolecularDevices) loading buffer in HBSS/HEPES is added to the cells and the plates are incubated with lid for 120 minutes at 37°/5% CO2. […] Finally 10 μL of the agonist AITC 50 μM dissolved in HBSS/HEPES buffer/0.05% DMSO (final concentration 10 μM) is added to the wells followed by an additional read on the FLIPRtetra device for 10 minutes. The area under the signal curve (AUC) after AITC addition is used for IC50/% inhibition calculations
Data Evaluation and Calculation:
Each assay microtiter plate contains wells with vehicle (1% DMSO) controls instead of compound as controls for AITC induced luminescence (100% CTL; high controls) and wells with vehicle controls without AITC as controls for non-specific changes in luminescence (0% CTL; low controls).
The analysis of the data is performed by the calculation of the area under signal curve of the individual wells. Based on this values the % value for the measurement of each substance concentration is calculated (AUC(sample)−AUC(low))*100/(AUC(high)−AUC(low)) using MegaLab software (in house development). The IC50 values are calculated from the % control values using MegaLab software. Calculation: [y=(a−d)/(1+(x/c)^b)+d], a=low value, d=high value; x=conc M; c=IC50 M; b=hill; y=% ctrl

The nature of data set [2]: Assay B: Microsomal clearance. Format: in vitro ADME, human. The note with it: compounds of the invention; pooled liver microsomes 1 mg/ml, 1 μM compound, 37° C., NADPH. Here is the method: Assay B: Microsomal Clearance:
The metabolic degradation of the test compound is assayed at 37° C. with pooled liver microsomes. The final incubation volume of 100 μl per time point contains TRIS buffer pH 7.6 at RT (0.1 M), magnesium chloride (5 mM), microsomal protein (1 mg/ml) and the test compound at a final concentration of 1 μM.
Following a short preincubation period at 37° C., the reactions are initiated by addition of beta-nicotinamide adenine dinucleotide phosphate, reduced form (NADPH, 1 mM) and terminated by transferring an aliquot into solvent after different time points (0, 5, 15, 30, 60 min). Additionally, the NADPH-independent degradation is monitored in incubations without NADPH, terminated at the last time point. The [%] remaining test compound after NADPH independent incubation is reflected by the parameter c(control) (metabolic stability). The quenched incubations are pelleted by centrifugation (10000 g, 5 min).
An aliquot of the supernatant is assayed by LC-MS/MS for the amount of parent compound. The half-life (t1/2 INVITRO) is determined by the slope of the semilogarithmic plot of the concentration-time profile.
The intrinsic clearance (CL_[…]) is calculated by considering the amount of protein in the incubation: CL_[…] [μl/min/mg protein]=(Ln 2/(half-life [min]*protein content [mg/ml]))*1000 CL_[…]_INVIVO [ml/min/kg]=(CL_[…] [μL/min/mg protein]×MPPGL [mg protein/g liver]×liver factor [g/kg bodyweight])/1000 Qh [%]=CL [ml/min/kg]/hepatic blood flow [ml/min/kg])
(§1) Hepatocellularity, human: 120×10e6 cells/g liver
(§2) Liver factor, human 25.7 g/kg bodyweight
(§3) Blood flow, human 21 ml/(min×kg)

A short description of data set [3]: Assay C: Hepatocyte clearance. Format: in vitro ADME, human. The note with it: compounds of the invention; hepatocyte suspension, 5% species serum, 1 μM compound, up to 6 h. Here is the method:
Assay C: Hepatocyte Clearance
The metabolic degradation of the test compound is assayed in a hepatocyte suspension. Hepatocytes (cryopreserved) are incubated in Dulbecco's modified eagle medium (supplemented with 3.5 μg glucagon/500 mL, 2.5 mg insulin/500 mL and 3.75 mg/500 mL hydrocortison) containing 5% species serum.
The cells are incubated for six hours (incubator, orbital shaker) and samples (25 μl) are taken at 0, 0.5, 1, 2, 4 and 6 hours. Samples are transferred into acetonitrile and pelleted by centrifugation (5 min). The supernatant is transferred to a new 96-deepwell plate, evaporated under nitrogen and resuspended.
Decline of parent compound is analyzed by HPLC-MS/MS
CLint is calculated as follows CL_[…]=Dose/AUC=(CO/CD)/(AUD+clast/k)×1000/60. C0: initial concentration in the incubation [μM], CD: cell density of vital cells [10e6cells/mL], AUD: area under the data [μM×h], clast: concentration of last data point [μM], k: slope of the regression line for parent decline [h−1].
The calculated in vitro hepatic intrinsic clearance can be scaled up to the intrinsic in vivo hepatic Clearance and used to predict hepatic in vivo blood clearance (CL) by the use of a liver model (well stirred model). CL_[…]_INVIVO [ml/min/kg]=(CL_[…] [μL/min/10e6cells]×hepatocellularity [10e6 cells/g liver]×liver factor [g/kg bodyweight])/1000 CL [ml/min/kg]=CL_[…]_INVIVO [ml/min/kg]×hepatic blood flow [ml/min/kg]/(CL_[…]_INVIVO [ml/min/kg]+hepatic blood flow [ml/min/kg]) Qh [%]=CL [ml/min/kg]/hepatic blood flow [ml/min/kg])
as §1, §2, §3

T1 sequence (O75762 whole entry): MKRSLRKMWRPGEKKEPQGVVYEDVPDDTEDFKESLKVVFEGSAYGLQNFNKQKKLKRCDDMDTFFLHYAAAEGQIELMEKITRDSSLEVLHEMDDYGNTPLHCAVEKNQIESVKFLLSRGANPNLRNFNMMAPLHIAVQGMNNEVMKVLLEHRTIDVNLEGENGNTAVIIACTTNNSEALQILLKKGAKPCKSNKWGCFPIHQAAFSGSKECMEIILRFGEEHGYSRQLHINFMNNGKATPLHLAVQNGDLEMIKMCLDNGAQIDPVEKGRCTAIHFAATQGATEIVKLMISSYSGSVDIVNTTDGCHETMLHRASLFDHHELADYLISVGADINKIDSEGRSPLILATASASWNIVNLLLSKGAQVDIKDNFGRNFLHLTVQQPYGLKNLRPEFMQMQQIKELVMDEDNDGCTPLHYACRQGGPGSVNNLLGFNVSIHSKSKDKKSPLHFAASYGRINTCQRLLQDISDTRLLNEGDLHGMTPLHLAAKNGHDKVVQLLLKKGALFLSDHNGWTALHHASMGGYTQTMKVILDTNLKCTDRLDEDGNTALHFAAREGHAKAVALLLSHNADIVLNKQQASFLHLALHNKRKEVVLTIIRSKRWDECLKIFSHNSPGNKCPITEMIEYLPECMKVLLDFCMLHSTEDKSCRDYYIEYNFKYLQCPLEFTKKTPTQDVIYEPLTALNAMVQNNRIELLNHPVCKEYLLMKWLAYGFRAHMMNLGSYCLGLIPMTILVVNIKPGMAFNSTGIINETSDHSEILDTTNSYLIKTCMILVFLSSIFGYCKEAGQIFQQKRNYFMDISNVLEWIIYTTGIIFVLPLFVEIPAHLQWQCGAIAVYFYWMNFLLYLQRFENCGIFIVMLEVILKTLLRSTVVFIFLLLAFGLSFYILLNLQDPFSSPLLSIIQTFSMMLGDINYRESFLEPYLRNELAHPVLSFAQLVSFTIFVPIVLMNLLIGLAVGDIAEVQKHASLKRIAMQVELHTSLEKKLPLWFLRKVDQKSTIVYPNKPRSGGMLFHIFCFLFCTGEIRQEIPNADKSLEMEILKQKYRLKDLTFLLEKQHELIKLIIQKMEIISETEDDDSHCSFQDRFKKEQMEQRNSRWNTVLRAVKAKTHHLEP

In general, IC50 refers to the concentration that inhibits the measured activity by half. Turning to `CN1C(=O)COc2ncn(Cc3nc(C[C@H](O)c4cc5cc(F)ccc5o4)no3)c(=O)c21` [Example 4], the IC50 in data set [1] was 39 nM. Moreover, the “human LM” value in data set [2] is on record as less than 23 % Qh. Also, the “human Hepatocytes” value in data set [3] is 22 % Qh.

On to `CN1C(=O)COc2ncn(Cc3nc(C[C@H](O)c4cc5ccccc5s4)no3)c(=O)c21` [Example 3], for which the IC50 in data set [1] amounted to 27 nM. Besides, in data set [2], the “human LM” value was less than 23 % Qh. Further, the “human Hepatocytes” value in data set [3] amounted to 31 % Qh.

Take `CN1C(=O)COc2ncn(Cc3nc(C[C@H](O)c4ccc(I)cc4)no3)c(=O)c21` [Example 5]: the IC50 in data set [1] was found to be 39 nM. Further, in data set [2], the “human LM” value was found to be 29 % Qh. The “human Hepatocytes” value in data set [3] turned out to be 22 % Qh.

For `CN1C(=O)COc2ncn(Cc3nc(C[C@H](O)c4cc5ccc(F)cc5s4)no3)c(=O)c21` [Example 2], the IC50 in data set [1] was 12 nM. In addition, the “human LM” value in data set [2] is reported as less than 23 % Qh. Moreover, the “human Hepatocytes” value in data set [3] was found to be 34 % Qh.

As for `CN1C(=O)COc2ncn(Cc3nc(C[C@H](O)c4ccc(Cl)cc4)no3)c(=O)c21` [Example 1, 3-({3-[(2S)-2-(4-chlorophenyl)-2-hydroxyethyl]-1,2,4-oxadiazol-5-yl}methyl)-5-methyl-3H,4H,5H,6H,7H-pyrimido[4,5-b][1,4]oxazine-4,6-dione], the IC50 in data set [1] was determined as 57 nM. Moreover, the “human LM” value in data set [2] was less than 23 % Qh. For the same molecule, the “human Hepatocytes” value in data set [3] was found to be 9 % Qh.

Consider `CN1C(=O)COc2ncn(Cc3nc(C[C@H](O)c4cc5cc(Cl)ccc5o4)no3)c(=O)c21` [Example 6], for which, in data set [1], the IC50 is 51 nM. In addition, in data set [2], the “human LM” value came out at 56 % Qh. Also, the “human Hepatocytes” value in data set [3] was 37 % Qh.

Regarding `Cc1ccc([C@@H](O)Cc2noc(Cn3cnc4c(c3=O)N(C)C(=O)CO4)n2)cc1` [Example 7], the IC50 in data set [1] worked out at 120 nM. The “human LM” value in data set [2] is recorded as less than 23 % Qh. In data set [3], the “human Hepatocytes” value is 9 % Qh.
